Measured values taken from publication PMC3525188, “Assessment of Anticholinesterase Activity of Gelidiella acerosa: Implications for Its Therapeutic Potential against Alzheimer's Disease” (Evidence-based Complementary and Alternative Medicine : eCAM, 2012).

Key:
[1] = target: T1, Electric eel AChE (Type-VI-S, EC 3.1.1.7) (Electrophorus electricus, UniProt O42275); test: Ellman assay, Lineweaver-Burk plot, EZ-Fit; assay type: biochemical; conditions: control without extract, 0.05 M Tris-HCl pH 8.0, RT; unreliable (printed unit nM implausible beside mM substrate)
T1 construct: commercial native enzyme, Sigma Type VI-S
T1 sequence (O42275 24-633): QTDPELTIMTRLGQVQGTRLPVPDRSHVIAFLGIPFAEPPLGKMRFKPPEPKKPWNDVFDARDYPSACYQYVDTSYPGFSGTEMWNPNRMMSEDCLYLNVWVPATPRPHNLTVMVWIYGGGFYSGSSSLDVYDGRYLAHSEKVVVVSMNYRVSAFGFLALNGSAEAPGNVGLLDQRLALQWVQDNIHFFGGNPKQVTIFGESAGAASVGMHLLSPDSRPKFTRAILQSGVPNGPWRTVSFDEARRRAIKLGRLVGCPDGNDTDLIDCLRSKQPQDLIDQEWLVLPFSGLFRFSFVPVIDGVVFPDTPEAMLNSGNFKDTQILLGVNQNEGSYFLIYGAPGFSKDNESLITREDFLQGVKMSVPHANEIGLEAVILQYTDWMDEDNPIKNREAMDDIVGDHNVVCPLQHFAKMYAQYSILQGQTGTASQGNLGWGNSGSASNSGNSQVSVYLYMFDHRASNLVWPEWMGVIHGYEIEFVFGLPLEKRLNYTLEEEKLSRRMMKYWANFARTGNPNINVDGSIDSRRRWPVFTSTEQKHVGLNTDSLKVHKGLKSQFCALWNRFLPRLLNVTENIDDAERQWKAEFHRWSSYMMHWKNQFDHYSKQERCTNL
Excerpt: Ellman assay, Lineweaver-Burk plot, EZ-Fit on Electric eel AChE (Type-VI-S, EC 3.1.1.7)

[2] = target: T2, horse serum BuChE (EC 3.1.1.8) (Equus caballus, UniProt P81908); test: Ellman assay, Lineweaver-Burk plot, EZ-Fit; assay type: biochemical; conditions: control without extract, 0.05 M Tris-HCl pH 8.0, RT; unreliable (printed unit nM implausible beside mM substrate)
T2 construct: gene BCHE; commercial native enzyme from horse serum, Sigma
T2 sequence (P81908 whole entry): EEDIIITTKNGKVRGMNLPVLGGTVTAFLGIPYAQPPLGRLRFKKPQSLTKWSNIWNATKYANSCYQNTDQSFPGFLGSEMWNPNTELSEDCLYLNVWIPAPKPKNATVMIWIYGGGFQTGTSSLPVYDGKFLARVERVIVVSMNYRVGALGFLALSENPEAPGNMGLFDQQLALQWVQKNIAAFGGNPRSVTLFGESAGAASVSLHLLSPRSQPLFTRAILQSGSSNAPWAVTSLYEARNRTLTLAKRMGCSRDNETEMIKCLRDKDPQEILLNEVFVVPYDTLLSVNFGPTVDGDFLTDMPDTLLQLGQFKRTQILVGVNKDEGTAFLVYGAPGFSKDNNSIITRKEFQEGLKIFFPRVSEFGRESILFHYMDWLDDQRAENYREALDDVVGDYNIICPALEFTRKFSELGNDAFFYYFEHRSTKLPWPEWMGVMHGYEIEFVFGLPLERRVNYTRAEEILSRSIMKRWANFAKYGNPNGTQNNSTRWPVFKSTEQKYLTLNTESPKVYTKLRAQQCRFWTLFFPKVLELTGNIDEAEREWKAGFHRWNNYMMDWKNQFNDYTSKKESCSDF
Excerpt: Ellman assay, Lineweaver-Burk plot, EZ-Fit on horse serum BuChE (EC 3.1.1.8)

Structure (SMILES) | AChE / Control [1] [nM] | BuChE / Control [2] [nM]
CC(=O)SCC[N+](C)(C)C [acetylthiocholine iodide] | 0.8774 ± 0.41 | –
CCCC(=O)SCC[N+](C)(C)C [butyrylthiocholine iodide] | – | 3.12 ± 0.87
